Laboratory results taken from patent US9023843B2, “Antimicrobial compounds and methods of making and using the same” (Melinta Therapeutics, Inc., priority 2009, dated 2015).

Test system: Eschericia coli strain ATCC25922
Experiment: standard microdilution assay to determine minimum inhibitory concentrations (MICs)
Type: cell-based
Details: Escherichia coli, read-out: E. coli ATCC25922 MIC
Experimental: Minimum inhibitory concentrations (MICs) are determined by the microdilution method, typically in a final volume of 100 microliters, according to protocols outlined by The Clinical and Laboratory Standards Institute [CLSI; formerly the National Committee for Clinical Laboratory Standards (NCCLS)]. See CLSI: Methods for dilution antimicrobial susceptibility tests for bacteria that grow aerobically; approved standard-fifth edition. Wayne, Pa.: NCCLS; 2000. The assays can be also be performed in microtiter trays according to conventional methodologies as published by the CLSI. See CLSI. Methods for Dilution Antimicrobial Susceptibility Tests for Bacteria That Grow Aerobically; Approved Standard-Seventh Edition. CLSI Document M7-A7 [ISBN 1-56238-587-9] CLSI, 940 West Valley Road, Suite 1400, Wayne Pa. 19087-1898 USA, 2006).
The compounds of the present invention were tested for antimicrobial activity. The compounds were run against Eschericia coli strain ATCC25922 using a standard microdilution assay to determine minimum inhibitory concentrations (MICs). […] A “N/A” means that data is unavailable. It will be recognized by one skilled in the art that the compounds can be assessed against other bacterial organisms and that the presentation of data for activity against Eschericia coli is illustrative and in no way is intended to limit the scope of the present invention. The compounds of the present invention can be assayed against a range of other microorganisms depending upon the performance activity desired to be gathered. Furthermore, the “+”, “−”, and “N/A” representation and the selection of a cutoff value of 16 micrograms/ml is also illustrative and in no way is intended to limit the scope of the present invention.

Structure (SMILES) | MIC
N=C(N)NCCCNC1CCC(n2cc3c(nc2=O)Nc2cc(C(=O)NCCc4c[nH]cn4)ccc2O3)CC1 (centres unmarked) [Compound 763] | > 16 µg/mL
CC(=O)NCCOc1cccc2c1Nc1nc(=O)n(C3CCC(CN)CC3)cc1O2 (centres unmarked) [Compound 1426] | > 16 µg/mL
N=C(N)NCCCNC1CCC(n2cc3c(nc2=O)Nc2cc(C4CCN(C(=O)CNC(=N)N)CC4)ccc2O3)CC1 (centres unmarked) [Compound 752] | < 16 µg/mL
N=C(N)NCCCN(C(=O)CCN)C1CCC(n2cc3c(nc2=O)Nc2cc(C4CCNCC4)ccc2O3)CC1 (centres unmarked) [Compound 1134] | < 16 µg/mL
N=C(N)NCCCN1CCC(n2cc3c(nc2=O)Nc2cc(C4CCN(C(=O)CN(Cc5ccc(F)c(F)c5)C5CCNCC5)CC4)ccc2O3)CC1 [Compound 749] | < 16 µg/mL
N=C(N)NCCCN1CCC(n2cc3c(nc2=O)Nc2cc(C4CCN(C(=O)CNC(=N)N)CC4)ccc2O3)CC1 [Compound 715] | < 16 µg/mL
NCCCNCc1ccc(-c2cn3c(=O)cc(Cc4cc(F)c(F)cc4F)[nH]c3nc2=O)cc1 [Compound 469] | > 16 µg/mL
COc1ccc(-c2cc(=O)n3cc(-c4ccc(CNCCCN)cc4)c(=O)nc3[nH]2)cc1 [Compound 378] | > 16 µg/mL
O=C(CCN1CCNCC1)NC1CCC(n2cc3c(nc2=O)Nc2cc(C4CCNCC4)ccc2O3)CC1 (centres unmarked) [Compound 1192] | > 16 µg/mL
N=C(N)NCCCN1CCCC(n2cc3c(nc2=O)Nc2cc(C(=O)Nc4ccc(F)cc4F)ccc2O3)CC1 (centres unmarked) [Compound 657] | > 16 µg/mL
O=c1nc2c(cn1C1CCC(NCCCN3CCCCC3)CC1)Oc1ccc(C3CCNCC3)cc1N2 (centres unmarked) [Compound 1234] | < 16 µg/mL
NCCCN1CCC(n2cc3c(nc2=O)Nc2cc(CCc4cccc(F)c4)ccc2O3)CC1 [Compound 592, 3-[1-(3-Amino-propyl)-piperidin-4-yl]-7-[2-(3-fluoro-phenyl)-ethyl]-3H,9H-10-oxa-1,3,9-triaza-anthracen-2-one] | < 16 µg/mL
N=C(N)NCCCN1CCC(n2cc3c(nc2=O)Nc2cc(C(=O)NCC(F)(F)C(F)(F)F)ccc2O3)CC1 [Compound 643] | > 16 µg/mL
NCCCNC(=O)C1CCC(n2cc3c(nc2=O)Nc2cc(C4CCNCC4)ccc2O3)CC1 (centres unmarked) [Compound 1235] | < 16 µg/mL
N#Cc1cccc(-c2ccc3c(c2)Nc2nc(=O)n(C4CCCN(CCCNC(=N)N)CC4)cc2O3)c1 (centres unmarked) [Compound 676] | > 16 µg/mL
N=C(N)NCCCN1CCC(n2cc3c(nc2=O)Nc2cc(C(=O)NCC(F)(F)F)ccc2O3)CC1 [Compound 639] | > 16 µg/mL
NCCCCCN1CCC(n2cc3c(nc2=O)Nc2ccccc2O3)CC1 [Compound 557] | > 16 µg/mL
COC(=O)c1ccc2c(c1)Nc1nc(=O)n(C3CCN(CCCN)CC3)cc1O2 [Compound 606] | > 16 µg/mL
NCCCN1CC=C(c2cnc3n(CCCN)c(-c4ccc(F)cc4)cn3c2=O)CC1 [Compound 568] | > 16 µg/mL
O=c1nc2c(cn1C1CCNCC1)Oc1ccc(CCc3cccc(F)c3)cc1N2 [Compound 579] | > 16 µg/mL
O=C(NCCCN1CCNCC1)c1ccc2c(c1)Nc1nc(=O)n(CCO)cc1O2 [Compound 858] | > 16 µg/mL
NCCCOc1cccc2c1Nc1nc(=O)n([C@H]3CC[C@H](CN)CC3)cc1O2 [Compound 1449] | > 16 µg/mL
NC[C@H]1CC[C@H](n2cc3c(nc2=O)Nc2c(OCCCCl)cccc2O3)CC1 [Compound 1450] | > 16 µg/mL
N=C(N)NCCCN1CCCC(n2cc3c(nc2=O)Nc2cc(C4CCN(C(=O)C5(N)CCCC5)CC4)ccc2O3)CC1 (centres unmarked) [Compound 777] | < 16 µg/mL
N=C(N)NCCCN1CCC(n2cc3c(nc2=O)Nc2cc(C4CCN(C(=O)Nc5ccc(F)cc5)CC4)ccc2O3)CC1 [Compound 733] | > 16 µg/mL
NC[C@H]1CC[C@H](n2cc3c(nc2=O)Nc2c(OCc4ccccc4)cccc2O3)CC1 [Compound 1467] | > 16 µg/mL
CN(C)CCCOc1cccc2c1Nc1nc(=O)n(C3CCC(CN)CC3)cc1O2 (centres unmarked) [Compound 1421] | > 16 µg/mL

Other lines, results leading:

MIC | Structure (SMILES)
> 16 µg/mL | NC1CCC(n2cc3c(nc2=O)Nc2cc(C4CCN(CC(=O)N(Cc5ccc6[nH]cnc6c5)C5CCNCC5)CC4)ccc2O3)CC1 (centres unmarked) [Compound 1096]
> 16 µg/mL | NCCCNC(=O)[C@H]1CC[C@H](n2cc3c(nc2=O)Nc2c(OCCN)cccc2O3)CC1 [Compound 4007c]
> 16 µg/mL | O=c1nc2c(cn1C1CCNCC1)Oc1ccccc1N2 [Compound 578]
< 16 µg/mL | N=C(N)NCCCNC1CCC(n2cc3c(nc2=O)Nc2cc(C4CCN(C(=O)C5(N)CC5)CC4)ccc2O3)CC1 (centres unmarked) [Compound 776]
< 16 µg/mL | N=C(N)NCCNC(=O)C1CCC(n2cc3c(nc2=O)Nc2cc(C4CCNCC4)ccc2O3)CC1 (centres unmarked) [Compound 1237]
< 16 µg/mL | NCCCN(C(=O)CCN)C1CCC(n2cc3c(nc2=O)Nc2cc(C4CCNCC4)ccc2O3)CC1 (centres unmarked) [Compound 1146]
> 16 µg/mL | NCCCNCc1ccc(-n2cc3c(nc2=O)Nc2ccc(CCc4ccc(F)cc4)cc2O3)cc1 [Compound 558]
< 16 µg/mL | N=C(N)NCCC(=O)NC1CCC(n2cc3c(nc2=O)Nc2cc(C4CCNCC4)ccc2O3)CC1 (centres unmarked) [Compound 1032]
< 16 µg/mL | NCCC(=O)NC1CCC(n2cc3c(nc2=O)Nc2cc(C4CCNCC4)ccc2O3)CC1 (centres unmarked) [Compound 1086]
< 16 µg/mL | N=C(N)NCCCN1CCCC(n2cc3c(nc2=O)Nc2cc(C4CCN(C(=O)CN)CC4)ccc2O3)CC1 (centres unmarked) [Compound 793]
> 16 µg/mL | N=C(N)NCCCN1CCC(n2cc3c(nc2=O)Nc2cc(C4CCN(S(=O)(=O)c5cccnc5)CC4)ccc2O3)CC1 [Compound 738]
> 16 µg/mL | NC1CCC(n2cc3c(nc2=O)Nc2cc(CC(=O)NCCCN4CCNCC4)ccc2O3)CC1 (centres unmarked) [Compound 903]
> 16 µg/mL | NCCCNCc1ccc(-c2cn3c(=O)cc(-c4ccc(OC(F)(F)F)cc4)[nH]c3nc2=O)cc1 [Compound 377]
> 16 µg/mL | NC[C@H]1CC[C@H](n2cc3c(nc2=O)Nc2c(OCCCOCc4ccccc4)cccc2O3)CC1 [Compound 4003c]
< 16 µg/mL | N=C(N)NCCCNC1CCC(n2cc3c(nc2=O)Nc2cc(C(=O)NCCCN4CCOCC4)ccc2O3)CC1 (centres unmarked) [Compound 781]
> 16 µg/mL | NC1CCCN(C(=O)c2ccc3c(c2)Nc2nc(=O)n(C4CCCNCC4)cc2O3)C1 (centres unmarked) [Compound 891]
> 16 µg/mL | O=c1nc2[nH]c(-c3ccccc3F)cc(=O)n2cc1I [Compound 375]
< 16 µg/mL | N=C(N)NCCS(=O)(=O)NC1CCC(n2cc3c(nc2=O)Nc2cc(C4CCNCC4)ccc2O3)CC1 (centres unmarked) [Compound 1133]
> 16 µg/mL | N=C(N)NCCCN1CCC(n2cc3c(nc2=O)Nc2cc(C4CCN(C(=O)Nc5ccc(F)c(Cl)c5)CC4)ccc2O3)CC1 [Compound 730]

MIC | Structure (SMILES)
> 16 µg/mL | NCCCN1CCC(n2cc3c(nc2=O)Nc2cc(C(=O)NCCc4ccc(F)cc4)ccc2O3)CC1 [Compound 660]
> 16 µg/mL | NCCCNCc1ccc(-c2cn3c(=O)cc(Cc4cccc([N+](=O)[O-])c4)[nH]c3nc2=O)cc1 [Compound 447]
> 16 µg/mL | NCCCNCc1ccc(-c2cn3c(=O)cc(Cc4ccc(Cl)c(Cl)c4)[nH]c3nc2=O)cc1 [Compound 430]
> 16 µg/mL | N=C(N)NCCCN1CCC(n2cc3c(nc2=O)Nc2ccccc2O3)CC1 [Compound 529]
> 16 µg/mL | COCCN(C(=O)CN1CCC(c2ccc3c(c2)Nc2nc(=O)n(C4CCC(N)CC4)cc2O3)CC1)C1CCNCC1 (centres unmarked) [Compound 1041]
> 16 µg/mL | NC1CCC(n2cc3c(nc2=O)Nc2cc(C4CCN(CC(=O)N(CC5CC5(F)F)C5CCNCC5)CC4)ccc2O3)CC1 (centres unmarked) [Compound 1042]
> 16 µg/mL | COc1cccc2c1Nc1nc(=O)n([C@H]3CC[C@H](CN)CC3)cc1O2 [Compound 4000c]
> 16 µg/mL | N=C(N)NCCCN1CCC(n2cc3c(nc2=O)Nc2cc(C(=O)Nc4ccc(F)cc4F)ccc2O3)CC1 [Compound 656]
< 16 µg/mL | N=C(N)NCCCN[C@H]1CC[C@H](n2cc3c(nc2=O)Nc2cc(CCN4CCOCC4)ccc2O3)CC1 [Compound 956]
< 16 µg/mL | NCCCNC1CCC(n2cc3c(nc2=O)Nc2cc(C4CCN(C(=O)CN(Cc5ccc(F)c(F)c5)C5CCNCC5)CC4)ccc2O3)CC1 (centres unmarked) [Compound 754]
< 16 µg/mL | N=C(N)NCCCNC1CCC(n2cc3c(nc2=O)Nc2cc(C4CCN(C(=O)Nc5ccc(F)cc5)CC4)ccc2O3)CC1 (centres unmarked) [Compound 765]
> 16 µg/mL | NCCCNCc1ccc(-c2cn3c(=O)cc(Cc4ccc(F)c(F)c4)[nH]c3nc2=O)cc1 [Compound 411]
> 16 µg/mL | Cn1cnc(S(=O)(=O)N2CCC(c3ccc4c(c3)Nc3nc(=O)n(C5CCC(NCCCNC(=N)N)CC5)cc3O4)CC2)c1 (centres unmarked) [Compound 750]
< 16 µg/mL | N=C(N)NCCCN1CCCC(n2cc3c(nc2=O)Nc2cc(C(=O)NCCC4CCNCC4)ccc2O3)CC1 (centres unmarked) [Compound 708]
< 16 µg/mL | NCCCNC1CCC(n2cc3c(nc2=O)Nc2cc(C(=O)NCCN4CCNCC4)ccc2O3)CC1 (centres unmarked) [Compound 740]
> 16 µg/mL | N=C(N)NCCCN1CCC(n2cc3c(nc2=O)Nc2cc(C(=O)Nc4ncn[nH]4)ccc2O3)CC1 [Compound 686]
> 16 µg/mL | O=C1OCCN1CCCNC1CCC(n2cc3c(nc2=O)Nc2cc(C4CCNCC4)ccc2O3)CC1 (centres unmarked) [Compound 1213]
< 16 µg/mL | NCCCNCC1CCC(n2cc3c(nc2=O)Nc2cc(C4CCNCC4)ccc2O3)CC1 (centres unmarked) [Compound 1269]
> 16 µg/mL | NCCCNCc1ccc(-c2cn3c(=O)cc(-c4ccccc4OC(F)(F)F)[nH]c3nc2=O)cc1 [Compound 371]
